Read-outs that look alike come from different tables or passages of the source.

The values below come from patent publication US5643890A, “Synthetic oligonucleotides which mimic telomeric sequences for use in treatment of cancer and other diseases” (priority 1995, dated 1997).

One data set has as its system OMA-BL1 cells. Put plainly: Growth rate / doubling time of OMA-BL1 cells cultured with oligo. The format is cell-based, human. To be noted: for Doubling Time (Hours of Doubling): observed for 5 days. How it is done: A cell line, OMA-BL1, of cells derived from an American Burkitt's lymphoma patient, which had the typical 8:14 chromosome translocation characteristic of Burkitt's lymphoma was tested according to the method of the invention. The OMA-BL1 cells have a homologous staining region along chromosome 18 (18 HSR). The cell line was grown in vitro consisting of RPMI 1640 medium supplemented with 20% fetal calf serum (RF20). 2 mM L-glutamine and antibiotics (streptomycin 100 μ/ml and penicillin) 2× week.
Phosphorothioate oligonucleotides corresponding to the recognition sequence for telomerase enzyme were synthesized. The sequence of oligonucleotides tested was 5'-(TTAGGG)-3' SEQ ID NO: 3. They were dissolved in RPMI1640 medium before using.
The cell lines were grown under concentration of 5×10^5 cells/ml and RPMI1640 with and without different concentrations of oligo. Concentrations of oligo used in the study were 1.25 μM and 2.5 μM. The growth rate of the cells was measured by counting the cells with a light microscope and Neuber cell counter on days 1, 3, and 5 after initiation of the culture. […]

The subject of data set [1] is OMA-BL1, Burkitt's Lymphoma. Put plainly: In vivo efficacy, OMA-BL1 Burkitt's lymphoma in nude mice, continuous subcutaneous infusion. The protocol:
Nude mice were injected with 5×10^6 OMA-BL1 cells subcutaneously in the leg flank. The mice were observed daily for the appearance of tumors and general well-being. […] The mean fill volume of these pumps is 0.226 ml. A solution of 4 mg/ml of 6-mers and 20 μl of FITC-TAG-6 was prepared then sterile filtered through a 0.22 μm in line filter (Millipore). […]

Another data set relates to 410.4 cells. In words: Tumor invasion assay (Matrigel invasion chambers) and proliferation, mouse breast cancer cell line. The format is cell-based. To be noted: for % control invasion / % inhibition: Mouse cell line, 48 hours; for % inhibition: invasion; for proliferation (in words): mouse highly metastatic breast cancer cell line. How it is done:
Migration of 410.4 cells through matrigel coated Nucleopore filters was measured using Matrigel invasion chambers (Collaborative Biomedical Products). These chambers contained inserts with […] pore size and were coated with a uniform film of matrigel. 4×10^4 410.4 cells in Weymouths Medium plus 0.1% bovine serum albumin were added to the invasion chambers. The wells below the invasion chambers contained 0.5 ml of Weymouths plus 10% fetal calf serum as a chemoattractant. […] The noninvasive cells were then removed from the upper surface of the membrane with a cotton swab and the cells on the lower surface were stained using a Leucostat staining kit. The membranes then were removed from the chamber using a scalpel and the cells were counted under high power (450×) in 5 random fields.

The test system of data set [2] is highly metastatic breast cancer cell line (Human). Put plainly: Tumor invasion assay (Matrigel invasion chambers) and proliferation, human breast cancer cell line. The format is cell-based. To be noted: for % control invasion / % inhibition: Human cell line, 48 hours; for proliferation (in words): human highly metastatic breast cancer cell line; for % inhibition: invasion.

The subject of data set [3] is OMA-BL1 cells, PBE1 cells, HPB-null cell line. In words: Cellular uptake of FITC-labeled oligo. It is filed as cell-based. To be noted: 6-mer compared with 18-mer; cell lines which have differentiated. From the text:
Several studies were done on cellular uptake and thus efficiency of oligonucleotide sequences mimicking the telomere motif. FIGS. 4 and 5 depict the comparison of the 18-mer 5'-d(TTAGGG)3 -3' SEQ ID NO: 4 with the 6-mer TELIGO 5'-d(TTAGGG)-3' SEQ ID NO: 3 for cellular uptake of FITC-labeled oligo in OMA-BL1 cells (FIGS. 5 and 4(a)), PBE1 cells FIG. 4(b) and in the nondifferentiated HPB-null cell line FIG. 4(c). […] FIG. 6 depicts the effects of 5'-d(TTAGGG)-3' SEQ ID NO: 3 on growth of OMA-BL1 cells in vitro at 1.25 μM and 2.5 μM.

Data set [4] has as its system telomerase. In words: FAM labeled 6-mer recovered from urine of tumor-bearing nude mouse, size analysis of telomerase products. It is filed as in vivo. To be noted: nude mouse bearing OMA-BL1 tumor. How it is done: An FAM labeled 6-mer 5'-d(TTAGGG)-3' SEQ ID NO: 3 was injected into nude mice with Burkitt's lymphoma (OMA-BL1) cells growing in them. The FAM labeled TELIGO was recovered from the urine of a nude mouse bearing a tumor composed of OMA-BL1 cells. The urine was evaluated on an Applied Biosystem, Inc. Gene Scanner which can separate the products of the telomerase enzyme by size along the abscissa and reports the quantity of products by the fluorescence intensity along the ordinate in arbitrary units. An internal standard of rhodamine labeled nucleic acids is run in the same gel in order to establish the measurement of size of the telomerase enzyme products of the TELIGO. The FAM label verifies that the DNA is from the injected TELIGO 6-mer and the size additions of intervals of 6-base lengths is evidence of the telomerase enzyme activity which adds 6 bases per catalytic cycle.
All products were multiples of six which is significant because in that telomerase adds bases to telomeres in multiples of six. Thus it would seem the 6-mer interacts with telomerase to form unique products verifying interaction in vivo.

A further data set has as its system Telomerase enzyme. Put plainly: Telomerase activity in extract of Chang cells incubated with oligo (32P-dGTP primer elongation, gel autoradiograph). It is filed as cell-based, human. To be noted: 3 μM oligo, three hours. How it is done:
Chang cells (human liver carcinoma) were grown in three T150 flasks until they reached confluency. 5'-d(TTAGGG)-3' SEQ ID NO: 3 phosphorothioate oligonucleotide was added at 3 μM concentration to each of the flasks and was allowed to incubate for three hours. Cells were harvested by scraping with a rubber policeman. Telomerase enzyme was prepared according to the method of Dignam, J. D.; Lebovitz, R. M.; and Raeder, R. G. (1983). Accurate transcription initiation by RNA Polymerase II in a Soluble Extract From Isolated Mammalian Nuclei. Nucl. Acids Res. 11, 1475-1489. 20 μL samples were taken from -80° C. and 20 μL of a reaction mixture containing 4.0mM dATP, 4.0mM dTTP, 4.0 mM dGTP, 2.0 μM (5'-d(TTAGGG)3 -3') SEQ ID NO: 4 primer, 10 mM β-mercaptanol, 100 mM TRIS-acetate pH 8.5, 2.0 mM MgCl2, 1 mM spermidine, and 2 μL of 3000 Ci/mmol P^32 labeled dGTP.
Samples were incubated for 30 minutes at 30° C. and stopped by the addition 10 μL […] EDTA pH 8.0 and 2.0 μL of tracking dye. Samples were loaded onto a 12.5 percent acrylamide gel and run at 25 mA constant power for 4-5 hours until the tracking dye had run off the gel. The gel was then soaked in 10 percent glycerol and water and dried overnight between two sheets of cellophane. […] The telomerase activity was inhibited for the 6-mer oligo.

Another data set relates to cell line. To be noted: cited from earlier work.
Data set [5] has as its system telomerase. Put plainly: HPB-null cell lysate, incorporation of labeled nucleic acids onto TELIGO 18-mer. To be noted: HPB-null cells. It is filed as cell-based.
For data set [6], the system named is telomerase. In words: Telomerase activity in OMA-BL1 cell lysate (densitometry of autoradiograph). The format is biochemical, human. To be noted: test not specified at b115. How it is done: An OMA-BL1 cell lysate was prepared to retain telomerase activity. The telomerase enzyme adds radioactive nucleic acids to the substrate which are separated on a polyacrylamide gel. The relative radioactivity in the gel was measured by densitomitry of the autoradiograph.

[7] abbreviates: nude mice, 48 μg/day, 14 days, subcutaneous infusion.

As for “5'-d(GTTGAGGGG)-3' (DNA, backbone not given here)”, the “Doubling Time (Hours of Doubling)” value with OMA-BL1 cells (1.25 μM oligo) came out at 49.4 ± 4.02 h; in the data set on OMA-BL1 cells (2.5 μM oligo), 60.71 ± 4.25 h.

Turning to “5'-d(TAGGG)-3' (DNA, backbone not given here)”, the “effect on cell proliferation (in words)” value with OMA-BL1 cells is “no inhibitory effect”. For the same substance, the “Doubling Time (Hours of Doubling)” value in the data set with OMA-BL1 cells (1.25 μM oligo) came out at 48.5 ± 3.0 h; with OMA-BL1 cells (2.5 μM oligo), 41.6 ± 2.0 h.

In the case of “5'-d(TCCTAGGTCCATGTCGTACGC)-3' (DNA, backbone not given here) [reference compound]”, in the data set with OMA-BL1 cells (2.5 μM oligo), the “Doubling Time (Hours of Doubling)” value was 38 h.

For “5'-d(TGAGG)-3' (DNA, backbone not given here)”, the “Doubling Time (Hours of Doubling)” value in the data set on OMA-BL1 cells (1.25 μM oligo) worked out at 30.3 ± 39 h; in the data set with OMA-BL1 cells (2.5 μM oligo), 42.0 ± 6.8 h.

As to 5'-d(TGTGAG)-3' [reference compound], the tumor regression entry in data set [1] (setting [7]) was “no such action was observed”. Further, the “Doubling Time (Hours of Doubling)” value in the data set on OMA-BL1 cells (1.25 μM oligo) worked out at 42.4 ± 1.8 h; in the data set with OMA-BL1 cells (2.5 μM oligo), 40.9 ± 2.3 h.

For “5'-d(TTAGG)-3' (DNA, backbone not given here)”, the “effect on cell proliferation (in words)” value with OMA-BL1 cells is reported as “no inhibitory effect”. Besides, the “Doubling Time (Hours of Doubling)” value in the data set with OMA-BL1 cells (1.25 μM oligo) was determined as 31.2 ± 8.5 h; with OMA-BL1 cells (2.5 μM oligo) it was 36.7 ± 3.1 h.

For orientation: % inhibition means the percentage by which the read-out fell short of the control. For “5'-d(TTAGGG)-3' (phosphorothioate backbone) [6-mer oligonucleotide which mimics the telomere motif]”, in the data set on 410.4 cells, the “% control invasion” value is on record as 15%, the “% inhibition” value was found to be 75% and the “proliferation (in words)” value is recorded as “inhibition of proliferation”. In addition, in data set [2], the “% control invasion” value amounted to 30%, the “proliferation (in words)” value is “inhibition of proliferation” and the “% inhibition” value is on record as 70%. Moreover, the “cellular uptake of FITC-labeled oligo” value in [3] is given as “considerably higher cellular uptake”. Also, in the data set on telomerase [4], the “substrate for telomerase in vivo (FAM-labeled products in urine, multiples of six)” value is “substrate for telomerase in vivo”. In addition, in data set [1] (setting [7]), the “toxicity during the treatment” value was “No toxicity was observed” and the tumor regression entry was “regression of tumors”. Also, the “localization of the oligonucleotide” value in data set [1] (tumor bearing nude mice, continuous subcutaneous infusion) is “localization of the oligonucleotide in tumors”. Also, the “effect on cell proliferation (in words)” value with OMA-BL1 cells is “drastically decreasing cell proliferation”. In addition, in the data set with OMA-BL1 cells (1.25 μM oligo), the “Doubling Time (Hours of Doubling)” value amounted to 59.4 ± 7.5 h. In the data set on OMA-BL1 cells (2.5 μM oligo), the “Doubling Time (Hours of Doubling)” value was over 100 h. The “effect on cell proliferation (in words)” value in the data set with OMA-BL1 cells (listed as phosphorothioate 6-mer) is “significant decrease in cell proliferation”. In addition, the “telomerase activity (elongation on autoradiograph)” value with Telomerase enzyme is listed as “inhibited”.

“5'-d(TTAGGGTTAGGG):' (DNA, backbone not given here) [two telomere repeats]”: the “Doubling Time (Hours of Doubling)” value in the data set with OMA-BL1 cells (1.25 μM oligo) and in the data set on OMA-BL1 cells (2.5 μM oligo) was over 100 h each time. In addition, in the data set with cell line, the “days in culture before any observable response” value is listed as at most 6 days.

Consider “5'-d(TTAGGGTTAGGGTTAGGG)-3' (DNA, backbone not given here)”, for which, in the data set on 410.4 cells, the “% control invasion” value is 21%, the “% inhibition” value is 79% and the “proliferation (in words)” value is recorded as “inhibition of proliferation”. In addition, in data set [2], the “% control invasion” value is 8%, the “proliferation (in words)” value was “inhibition of proliferation” and the “% inhibition” value is on record as 92%. Further, in the data set with telomerase [5], the “extension on the TELIGO 18-mer (retained radioactivity)” value is recorded as “dependent upon the dose”. In the data set with OMA-BL1 cells (1.25 μM oligo), the “Doubling Time (Hours of Doubling)” value is over 100 h. In addition, the “Doubling Time (Hours of Doubling)” value in the data set on OMA-BL1 cells (2.5 μM oligo) is over 100 h.

In the case of 5'-d(TTAGGGTTAGGGTTAGGGTTAGGG)-3', the “Doubling Time (Hours of Doubling)” value in the data set on OMA-BL1 cells (1.25 μM oligo) and in the data set with OMA-BL1 cells (2.5 μM oligo) was over 100 h throughout.

As for “5'AACGGTGAGGGGCAT-3' (chemistry not given here) [c-myc, antisense oligo to the c-myc gene, reference compound]”, in the data set with OMA-BL1 cells, the “effect on cell proliferation (in words)” value is “significantly decreased cellular proliferation”.

For “5'TATGCTGTGCCGGGGTCTTCGGGC-3' (chemistry not given here) [c-myb antisense oligonucleotide, reference compound]”, the “effect on cell proliferation (in words)” value with OMA-BL1 cells was “significantly decreased cellular proliferation”.

On to “TGTGAGGGG (chemistry not given here) [myc 9-mer, 9-mer derived from the antisense oligo c-myc, contains a motif substantially analogous to the telomere motif]”, for which the “telomerase activity (in words)” value in the data set on telomerase [6] is listed as “inhibited”. In addition, in the data set on OMA-BL1 cells, the “effect on cell proliferation (in words)” value is given as “effects similar to the 6-met”.
